Experiment: xn = mol fraction of the nth substance listed
Settings: for electrical conductivity: 298 K, 101 kPa

CC[n+]1ccn(C)c1.F[B-](F)(F)F + C1COCCO1
100 kPa
Settings | viscosity [mPa·s]
293.15 K, x2 = 0 | 50.5
298.15 K, x2 = 0.2149 | 26.8
303.15 K, x2 = 0 | 34.5
303.15 K, x2 = 0.1664 | 25.1
303.15 K, x2 = 0.2149 | 22.7
303.15 K, x2 = 0.5453 | 9.3
313.15 K, x2 = 0.2149 | 16.9
323.15 K, x2 = 0 | 18.6
323.15 K, x2 = 0.5077 | 6.59
323.15 K, x2 = 0.5453 | 5.93
333.15 K, x2 = 0.3591 | 7.8
333.15 K, x2 = 0.5077 | 5.42
353.15 K, x2 = 0.5453 | 3.52

CC[n+]1ccn(C)c1.F[B-](F)(F)F + CC1COC(=O)O1
Settings | electrical conductivity [S/m]
x2 = 0.16 | 1.5
x2 = 0.83 | 1.68
x2 = 0.89 | 1.46

CC[n+]1ccn(C)c1.O=S(=O)([N-]S(=O)(=O)C(F)(F)F)C(F)(F)F + CC1COC(=O)O1
101.3 kPa
Settings | viscosity [mPa·s]
288.15 K, x1 = 0.7977 | 34.2
293.15 K, x1 = 0.3007 | 8.42
293.15 K, x1 = 1 | 39.06
298.15 K, x1 = 0.2127 | 5.58
298.15 K, x1 = 0.7004 | 20.1
303.15 K, x1 = 0.1 | 3.358
303.15 K, x1 = 0.4227 | 8.98
303.15 K, x1 = 0.7601 | 18.97
308.15 K, x1 = 0.4227 | 7.89
308.15 K, x1 = 0.6015 | 12.59
308.15 K, x1 = 0.7601 | 16.83
308.15 K, x1 = 1 | 23.19
313.15 K, x1 = 0.7601 | 14.7
313.15 K, x1 = 0.8098 | 16.11
313.15 K, x1 = 1 | 19.94
318.15 K, x1 = 0.3007 | 4.614
318.15 K, x1 = 0.6015 | 9.46
318.15 K, x1 = 0.7004 | 11.6
318.15 K, x1 = 0.9533 | 16.99
323.15 K, x1 = 0.6015 | 8.33
328.15 K, x1 = 0.2127 | 3.014
328.15 K, x1 = 0.4227 | 5.07
328.15 K, x1 = 0.5146 | 6.11
328.15 K, x1 = 0.7601 | 9.85
328.15 K, x1 = 0.7977 | 10.52
333.15 K, x1 = 0.1 | 1.979
333.15 K, x1 = 0.3007 | 3.477
333.15 K, x1 = 0.658 | 7.31
333.15 K, x1 = 0.7004 | 7.92
338.15 K, x1 = 0.1 | 1.838
343.15 K, x1 = 0.5146 | 4.595
343.15 K, x1 = 0.7601 | 6.96
343.15 K, x1 = 0.7977 | 7.41
343.15 K, x1 = 0.8098 | 7.59
348.15 K, x1 = 0.1 | 1.599
348.15 K, x1 = 0.2127 | 2.203
348.15 K, x1 = 0.658 | 5.39

CCCCCC[P+](CCCC)(CCCC)CCCC.F[B-](F)(F)F + CC#N
viscosity [mPa·s], 100 kPa
Settings | x1 = 0.004011 | x1 = 0.008155 | x1 = 0.01203 | x1 = 0.01615 | x1 = 0.01996 | x1 = 0.02404 | x1 = 0.02792 | x1 = 0.03151 | x1 = 0.03559 | x1 = 0.03974
293.15 K | 0.374 | 0.398 | 0.419 | 0.446 | 0.47 | 0.499 | 0.526 | 0.554 | 0.585 | 0.621
298.15 K | 0.357 | 0.379 | 0.399 | 0.423 | 0.446 | 0.472 | 0.497 | 0.523 | 0.551 | 0.585
303.15 K | 0.341 | 0.361 | 0.38 | 0.403 | 0.423 | 0.448 | 0.47 | 0.495 | 0.521 | 0.552
308.15 K | 0.326 | 0.345 | 0.362 | 0.383 | 0.403 | 0.425 | 0.446 | 0.469 | 0.493 | 0.522
313.15 K | 0.313 | 0.331 | 0.347 | 0.366 | 0.384 | 0.406 | 0.425 | 0.446 | 0.468 | 0.495
318.15 K | 0.3 | 0.317 | 0.332 | 0.35 | 0.367 | 0.387 | 0.405 | 0.424 | 0.445 | 0.47
